Laboratory results from patent publication US20090130763A1, “Method of Controlling Degradation of Protein by Tetracycline Antibiotic” (priority 2005, published 2009).
Residues, ends and D or L forms follow the SMILES beside them. *: point of attachment. Cbz = O=C(OCc1ccccc1)*

System: proteasome
Test: Incubation of TetR-EGFP-expressed cells with proteasome inhibitor, fluorescence by flow cytometer
Conditions: variant TetR-EGFP-expressed cells, 100 μg/ml, 12 hours (FIG. 1C)
Experimental: The cells were treated with trypsin and then recovered. Fluorescence-positive cell rates and the intensity of fluorescence per cell were analyzed by a flow cytometer (BD, FACSCalibur).
These cells were incubated for 12 hours in the presence of 100 μg/ml of proteasome inhibitor MG132.

## CC(C)C[C@@H](C=O)NC(=O)[C@H](CC(C)C)NC(=O)[C@H](CC(C)C)NC(=O)OCc1ccccc1 [MG132] (Cbz-Leu-Leu-Leu-aldehyde)
  change in fluorescence: marked increase
